Results as given in patent US8778643B2, “Methods for increasing lipid levels and producing triacylglycerols in algae” (priority 2012, dated 2014).
Values joined by “and” are separate entries in the source; they are usually repeats but may differ in a detail not shown here. Equal values may be shown once. “Also recorded” adds a separate entry of the source. Read-outs that look alike come from different tables or passages of the source.

Columns and labels:
Nannochloropsis oculata [1] = assay: Lipid composition of batch culture extracts (fatty acid saturation / PUFA by 1H NMR, MALDI-TOF, GC/MS); type: cell-based; conditions: for SFAs (% of total lipids) / n3 PUFAs (% of UFAs) / All other PUFAs and MUFAs (% of UFAs) / UFAs (% of total lipids): 1H NMR; for SFAs (% of total lipids): Normal 24; for n3 PUFAs (% of UFAs): Normal 37; for All other PUFAs and MUFAs (% of UFAs): Normal 63; for UFAs (% of total lipids): Normal 76
Protocol: The nonpolar algal extracts were harvested from 500 mL cultures when indicated on growth curves, a minimum of 3 days into stationary phase. […] Cells were crushed and nonpolar lipids were extracted by sonication (Fisher Scientific Model 120 Sonic Dismembrator, ThermoFisher, San Jose) for 1 minute in chloroform, followed by chloroform-methanol extractions, washed with PBS butter, and dried under vacuum.^55-60 The crude non-polar algae extracts were then analyzed by ^1H Nuclear Magnetic Resonance (^1H NMR) for verification of TAG presence and examination of the purity of the extract (determination of level of chlorophyll). The extracts were then divided for analysis; one part for transesterification, one part to save as crude extract, and one part for SPE separation and MALDI-TOF analysis of TAGs.
Triacylglycerols can be isolated by solid-phase extraction (SPE) with 500 mg silica SPE cartridges (Silicycle, Quebec). The nonpolar extract is dissolved in 300 μL hexanes, and loaded on the SPE cartridge primed with hexanes. A mixture of 80:20:1 hexanes/diethyl ether/acetic acid was used as mobile phase to elute the TAGs.^61 SPE removes any chlorophyll in this process. Residual polar fraction containing polar lipids and chlorophyll was obtained by elution with acetone. All extracts and TAG fractions were dried under vacuum and stored under argon in amber vials at −20° C. before spectroscopic analysis. After SPE, the purified TAG fraction was reanalyzed with ^1H NMR spectroscopy for TAG characterization.
The TOF was in Reflectron mode with laser intensity from 5500-6500 Volts. Each acquisition consisted of 2500 shots with a focus mass of 900 Da, and a scan range of m/z 400-1100. Multiple acquisition scans were performed at different laser intensities to determine optimal conditions. Samples for the MALDI-TOF were diluted to 5 mg/mL in hexane, and spotted in the fast-evaporation method in a 1:2 ratio with DHB (2,5-dihydroxybenzoic acid) as the matrix. Re-spotting with methanol allowed for the matrix and sample to mix without hexane interactions, and allowed for better crystal formation. All samples on MALDI plate were allowed to dry before MS analysis. Data was normalized to base peak in all cases.
After the initial weight was recorded, the nonpolar extract set aside for transesterification was dissolved in 3.0 mL of 0.6 M sulfuric acid in methanol and stirred vigorously at 60° C. for 45 minutes.
Initial GC/MS temperature was 50° C. and end was 200° C. over at a one hour period for optimal FAME peak separation.
Peak assignment of fatty acids and their derivatives are based on NMR spectroscopic studies of previously reported algal lipid extracts^9 and comparison to standards such as olive oil (ACROS) and fatty acid mixtures.
We developed a quick and robust method to screen if the screened compound effect fatty acid saturation levels using ^1H NMR spectroscopy. The amount of saturated fatty acids (SFA), monounsaturated fatty acids (MUFAs), and polyunsaturated fatty acids (PUFAs) was determined using peak area ratios.
Calculated based on ^1H NMR integral ratios for the proton signals for the methyl group of PUFA components vs. the methyl groups of monounsaturated and saturated components.

[2] = system: Phaeodactylum tricornutum; assay: Microplate assay: growth (absorbance 680 nm) and intracellular lipids (Nile Red fluorescence); type: cell-based; conditions: for increase in lipid levels: higher concentrations
Nannochloris sp. [3] = assay: as above; type: cell-based; conditions: for Nile Red Fluorescence % Increase: Nannochloris sp., compounds tested at 20 μM, initial screening, p<0.05
Protocol: (§1) Stock cultures were aerated by stirring with bubbling air (homemade manifold with Petco air pump, 2-4% CO2) or by orbital shaking (Thermo Scientific MAXQ 2000) at a constant speed of 150 rpm at 22±3° C. with a 16:8 hour light/dark cycle. Stocks were kept at stationary phase for use. Algae were prepared as dictated by culture center.
(§2) Compounds were selected based on reported biological activity in non-microalgae organisms. To ensure that compounds retained their quality, they were stored under advised conditions after purchasing from the manufacturer. Solutions of all assay compounds were prepared as 10 mM stock solutions by dissolving in DMSO in 2-dram amber vials and then stored in darkness −20° C. 96-well PCR plates were used to create a stock plate layout that was then transferred to the algae microplates. A plate map was used to distribute each compound to a well based on molecule name, collection number, and CAS number. For 20 μM and 200 nM assay plates, 10 mM compound stock in DMSO was diluted into plate maps of 5 mM and 50 μM assay stocks, respectively.
(§3) All materials for assay experiments were autoclaved before each use to maintain axenic algae cultures. Algae species were checked for homogeneity using a TS-100 light microscope (Nikon, Japan). […] Diluted stock solutions were made immediately prior to use for consistency and optimal plate growth. Cell density was measured on a Thermo Scientific Genesys 10S Vis Spectrophotometer (ThermoFisher, San Jose), using a 1 mL cuvette at 680 nm.
(§4) Plates were originally run in triplicate, before replicates were increased to quadruplicate, along with a separate control plate to compare growth. Due to extensive evaporation in exterior wells over time, our unique algae plate layout was designed to use the 60 interior wells out of 96 wells for the experiment. The 36 outer wells were filled with Millipore water and media to prevent evaporation and edge effects in the inner algae wells, as well as serve as blanks. The 60 wells with algae contained a total volume of 251 μL (100 μL of media+DMSO compound stock +150 μL dilute algae stock). For 20 μM and 200 nM assay plates, 10 mM compound stock in DMSO is diluted into plate maps of 5 mM and 50 μM assay stocks, respectively. […] Plates were parafilmed during growth to limit the amount of evaporation that can occur. Plates were numbered, and numerically ordered to ensure they got the same shaker space.
(§5) The shakers are kept at a constant shaking of 150 rpm. Ambient temperature is 22±3° C.

Nannochloris sp. [4] = assay: 500 mL batch culture: growth, dry weight and lipid extract (gravimetric); type: cell-based; conditions: for Lipid productivity / Change in Lipids / Specific Growth Rate: Nannochloris sp., 500 mL culture, 4 nM; for Change in Lipids: gravimetric, relative to averaged control without DMSO; for Specific Growth Rate: mid-exponential growth phase
Nannochloropsis oculata [5] = conditions: for increase in lipid levels (Nile Red): lower concentrations, >0.040 nM; for Nile Red Fluorescence % Increase: compounds tested at 200 nM, initial screening, p<0.05
[6] = system: Phaeodactylum tricornutum; assay: 500 mL batch culture: growth, dry weight and lipid extract (gravimetric); type: cell-based
Protocol: (§6) Batch cultures were grown in 500 mL Pyrex media bottles with stirring and air bubbling (homemade manifold with Petco air pump, 2-4% CO2). Incoming air was sterile filtered by Polyvent 4 disposable filters (Whatman, Kent, UK). […] To minimize bacterial contamination, all equipment and materials were autoclaved and media was added to flask in a Purifier Vertical Clean bench (Labconco, Kansas City, Mo.). […] The amount of DMSO is standardized for all experiments to 0.4%.
(§7) For all compound cultures, the 2 mL DMSO stock solution was added to media (without algae) first and mixed well. Control cultures were grown without DMSO. DMSO controls consisted of 0.04-1.0% DMSO. After the addition of algae and media, the container was plugged with a bug stopper vented closure cap and mixed thoroughly. Absorbance is measured immediately for Day 0 analysis. Afterward, absorbance was measured every 1-2 days with a cuvette (1 mL volume) on the Thermo Scientific Genesys 10S V is Spectrophotometer (ThermoFisher, San Jose) at 680 nm.
(§8) Batch cultures were also repeated in triplicate and compared to a control culture grown at the same time. Algae were harvested and lipids were extracted for gravimetric analysis.
(§9) The nonpolar algal extracts were harvested from 500 mL cultures when indicated on growth curves, a minimum of 3 days into stationary phase.
(§10) Cell density was monitored by measuring absorbance at 680 nm every 1-2 days.
(§11) 500-mL cultures were harvested 6 days into stationary phase based on absorbance values. Cells were concentrated by centrifugation and lyophilization to remove water. Nonpolar lipids were extracted by sonication and solvent (chloroform-methanol and PBS buffer). […] Changes in lipid levels for batch cultures were determined by crude lipid extract mass.

Nannochloropsis salina [7] = system: Nannochloropsis salina
Protocol: as §1, §2, §3, §4, §5

Nannochloropsis oculata [8] = assay: 500 mL batch culture: growth, dry weight and lipid extract (gravimetric); type: cell-based
Protocol: as §6, §7, §8, §9, §10, §11

microalgae = assay: Microplate assay (growth, Nile Red lipids), algae strain not stated
Nannochloropsis salina [9] = assay: 500 mL batch culture: growth, dry weight and lipid extract (gravimetric); type: cell-based
Protocol: as §6, §7, §8
Cultures were harvested at day 6 in stationary phase. Cultures were pelleted, lyophilized, and extracted side-by-side. The experiment was performed in triplicate.
The nonpolar algal extracts were harvested from 500 mL cultures when indicated on growth curves, a minimum of 3 days into stationary phase. […] Cells were crushed and nonpolar lipids were extracted by sonication (Fisher Scientific Model 120 Sonic Dismembrator, ThermoFisher, San Jose) for 1 minute in chloroform, followed by chloroform-methanol extractions, washed with PBS butter, and dried under vacuum.^55-60 The crude non-polar algae extracts were then analyzed by ^1H Nuclear Magnetic Resonance (^1H NMR) for verification of TAG presence and examination of the purity of the extract (determination of level of chlorophyll).
as §10, §11

[10] = 40 μM, initial microplate screen, relative to control
[11] = 200 nM, initial microplate screen, relative to control
[12] = 0.4% by volume, 500 mL culture, day 6 in stationary phase
[13] = DMSO at 0.4% v/v, batch culture
[14] = N. oculata, DMSO average, harvested day 6 of stationary phase, n=3

O=C(O)O [Bicarbonate]
MUFAs (%) (Nannochloropsis oculata [1]): 13%
PUFAs (%) (Nannochloropsis oculata [1]): 87%
SFAs (%) (Nannochloropsis oculata [1]): 0%
n3 PUFAs (%) (Nannochloropsis oculata [1]): 20%

Oc1ccc(-c2nc(-c3ccncc3)c(-c3ccc(F)cc3)[nH]2)cc1 [SB202190, 4-(4-Flurophenyl)-2-(4-hydroxyphenyl)-5-(4-pyridyl)-1H-imidazole]
Absorbance (percent increase) [2, 10]: +4.26%
Nile Red percent increase [2, 10]: 112.4%
increase in lipid levels ([2]; DMSO as delivery agent): 26%
Nile Red Fluorescence % Increase ([2]; P. tricornutum, compounds tested at 40 μM, initial screening, p<0.05): 115.0%
increase in lipid levels ([2]; water as delivery agent): 99%
Nile Red percent increase (Nannochloris sp. [3]; 123-457 pM, dose-response microplate screen): 103-175%
Nile Red Fluorescence % Increase (Nannochloris sp. [3]): 54.6% and 28.8%
Lipid productivity (Nannochloris sp. [4]): 3.0 ± 1.7 mgL^−1day^−1
Lipid productivity (Nannochloris sp. [4]; exponential addition): 4.0 ± 1.6 mgL^−1day^−1
Change in Lipids (Nannochloris sp. [4]; exponential addition): 38%
Specific Growth Rate (Nannochloris sp. [4]; exponential addition): 0.15 ± 0.08 day⁻¹
Change in Lipids (Nannochloris sp. [4]): 3%
Specific Growth Rate (Nannochloris sp. [4]): 0.17 ± 0.02 day⁻¹
increase in lipid levels (Nannochloris sp. [4]; batch culture, added during the exponential growth phase): 38%
% Lipid increase based on Nile red fluorescence intensity (Nannochloropsis oculata [5]; N. oculata, 400 fM, added at exponential phase, t=day 7): 95%
% Increase based on Nile Red Fluorescence Intensity (Nannochloropsis oculata [5]; N. oculata, 400 fM, added during exponential phase): 95%
increase in lipid levels (Nile Red) (Nannochloropsis oculata [5]; compound added at t=day 0): 45%
increase in lipid levels (Nile Red) (Nannochloropsis oculata [5]; compound added in exponential growth phase (Day 7)): 95%

Cc1cc2c(C(C)C)c(O)c(O)c(C=O)c2c(O)c1-c1c(C)cc2c(C(C)C)c(O)c(O)c(C=O)c2c1O [Gossypol, 2,2′-bis-(Formyl-1,6,7-trihydroxy-5-isopropyl-3-methylnaphthalene)]
increase in lipid production ([2]; 0.0757 nM, DMSO delivery): > 250%
Nile Red percent increase ([2]; 0.0757 nM, dose-response microplate screen): 111%
% increase (lipid production) ([2]; 0.0252-165.6 nM): 5-283%
optimal effective concentration (lipid production) ([2]; DMSO delivery): 0.0757 nM
Lipid productivity ([6]; P. tricornutum, 500 mL culture, 76 pM): 5.6 ± 1.9 mgL^−1day^−1
Lipid content ([6]; P. tricornutum, 500 mL culture, 76 pM, dried lipid extract per dry biomass): 24.4 ± 2.7 % w/w
Change in Lipids ([6]; P. tricornutum, 500 mL culture, 76 pM, gravimetric, relative to averaged control without DMSO): 27%
Specific Growth Rate ([6]; P. tricornutum, 500 mL culture, 76 pM, mid-exponential growth phase): 0.21 ± 0.05 day⁻¹
% increase (lipid production) (Nannochloropsis salina [7]; 0.0757-6.13 nM (H2O)): 1-27(H2O) %
% increase (lipid production) (Nannochloropsis salina [7]; 0.0757-55.2 nM, DMSO delivery): 8-81%
% Lipid increase based on Nile red fluorescence intensity (Nannochloropsis salina [7]; N. salina, 6.13 nM, DMSO, t=day 0): 103%
% Increase based on Nile Red Fluorescence Intensity (Nannochloropsis salina [7]; N. salina, 6.13 nM, DMSO delivery, added t=day 0): 103%
optimal effective concentration (lipid production) (Nannochloropsis salina [7]; lipoxygenase inhibitor microplate screen): 6 nM

O=C([O-])O.[Na+] [NaHCO3]
Absorbance at harvest (Nannochloropsis oculata [8]): 2.373 ± 0.217
Dry weight (Nannochloropsis oculata [8]): 371 ± 117.8
Extract Weight (Nannochloropsis oculata [8]): 93.5 ± 34.0

OCC(O)CO [Glycerol, propane-1,2,3-triol]
SFAs (% of total lipids) (Nannochloropsis oculata [1]; 11 mM): 39 % of total lipids
n3 PUFAs (% of UFAs) (Nannochloropsis oculata [1]; 11 mM): 16 % of UFAs
All other PUFAs and MUFAs (% of UFAs) (Nannochloropsis oculata [1]; 11 mM): 84 % of UFAs
UFAs (% of total lipids) (Nannochloropsis oculata [1]; 11 mM): 61 % of total lipids
SFAs (%) (Nannochloropsis oculata [1]; N. oculata, 1 g/L, n=1, Normal 0 ± 1): 30%
MUFAs (%) (Nannochloropsis oculata [1]; N. oculata, 1 g/L, n=1, Normal 4 ± 7): 33%
n3 PUFAs (%) (Nannochloropsis oculata [1]; N. oculata, 1 g/L, n=1, Normal 28 ± 4): 10%
PUFAs (%) (Nannochloropsis oculata [1]; N. oculata, 1 g/L, n=1, Normal 96 ± 7): 38%

CC1CC(C)C(=O)C(C(O)CC2CC(=O)NC(=O)C2)C1 (centres unmarked) [Cycloheximide, 3-[2-(3,5-Dimethyl-2-oxocyclohexyl)-2-hydroxyethyl]glutarimide]
% Lipid increase based on Nile red fluorescence intensity ([2]; P. tricornutum, 400 nM, added at exponential phase, t=day 7): 408%
% Increase based on Nile Red Fluorescence Intensity ([2]; P. tricornutum, 400 nM, added during exponential phase): 408%
Absorbance (percent increase) (Nannochloris sp. [3]; [11]): −12.4%
Nile Red percent increase (Nannochloris sp. [3]; [11]): 178.1%
SFAs (% of total lipids) (Nannochloropsis oculata [1]; 40 nM (exponential)): 39 % of total lipids
n3 PUFAs (% of UFAs) (Nannochloropsis oculata [1]; 40 nM (exponential)): 33 % of UFAs
All other PUFAs and MUFAs (% of UFAs) (Nannochloropsis oculata [1]; 40 nM (exponential)): 67 % of UFAs
UFAs (% of total lipids) (Nannochloropsis oculata [1]; 40 nM (exponential)): 61 % of total lipids
Nile Red percent increase (Nannochloropsis oculata [5]; 4.6-41.2 nM, dose-response microplate screen): 87-96%
Nile Red Fluorescence % Increase (Nannochloropsis oculata [5]; N. oculata): 137.9%
effect on lipid levels (microalgae; added in the initial phase, <1 μM, greater than 1 μM): minimal increase in lipid levels
effect on cell growth (microalgae; added in the initial phase, <1 μM, greater than 1 μM, all four species): inhibitory effect on cell growth

Oc1ccc(/C=C/c2cc(O)cc(O)c2)cc1 [Resveratrol, 5-[(E)-2-(4-hydroxyphenyl)ethenyl]benzene-1,3-diol]
% Lipid increase based on Nile red fluorescence intensity ([2]; P. tricornutum, 10 nM, DMSO, t=day 0): 61%
% Increase based on Nile Red Fluorescence Intensity ([2]; P. tricornutum, 10 nM, DMSO delivery, added t=day 0): 61%
Nile Red Fluorescence % Increase (Nannochloris sp. [3]): 53.3%
% Inc (Nannochloropsis salina [7]; increase of lipid production, N. salina, best conc. 10 nM): 272.72%
Nile Red Fluorescence % Increase (Nannochloropsis oculata [5]; N. oculata): 120.4%

C[S+](C)[O-] [DMSO, dimethylsulfoxide]
effect on growth and lipid levels ([6]; 500 mL batch culture): No significant changes; also recorded: decrease in growth and lipid production; also recorded: no effect, or a small decrease in growth and lipid production
Absorbance at harvest (Nannochloropsis salina [9]; [12]): 1.50 ± 0.13
Dry weight (Nannochloropsis salina [9]; [12]): 429.90 ± 109.74 mg
Extract Weight (Nannochloropsis salina [9]; [12]): 92.83 ± 6.37 mg
Number of Cells (Nannochloropsis salina [9]; [12]): 1.44E+09
Recovered Weight (Nannochloropsis salina [9]; [12]): 393.17 ± 112.84 mg
effect on growth and lipid levels (Nannochloropsis salina [9]; 500 mL batch culture): increased growth and lipid levels
increase in lipid levels (Nannochloropsis salina [9]; [13]): 25%
increase in lipid levels (Nannochloropsis salina [9]; DMSO, batch culture (Table 18)): up to 50%
increase in lipid levels relative to control without DMSO (Nannochloropsis oculata [8]; 1.0% DMSO, batch cultures): 78%
effect on growth and lipid levels (Nannochloropsis oculata [8]; 500 mL batch culture): increased growth and lipid levels
increase in lipid levels (Nannochloropsis oculata [8]; [13]): 39%
Absorbance at harvest (Nannochloropsis oculata [8]; N. oculata, DMSO (0.4%), n=3): 1.776 ± 0.060
Dry weight (Nannochloropsis oculata [8]; N. oculata, DMSO (0.4%), n=3): 409.2 ± 105.6
Extract Weight (Nannochloropsis oculata [8]; N. oculata, DMSO (0.4%), n=3): 67.2 ± 7.8
Absorbance at harvest (Nannochloropsis oculata [8]; N. oculata, DMSO (1%), n=2): 1.827 ± 0.288
Dry weight (Nannochloropsis oculata [8]; N. oculata, DMSO (1%), n=2): 280.4 ± 88.0
Extract Weight (Nannochloropsis oculata [8]; N. oculata, DMSO (1%), n=2): 47.2 ± 11.0
Absorbance at harvest (Nannochloropsis oculata [8]; [14]): 1.83
Dry weight (Nannochloropsis oculata [8]; [14]): 283.27 mg
Extract Weight (Nannochloropsis oculata [8]; [14]): 56.83 mg
Number of Cells (Nannochloropsis oculata [8]; [14]): 2.32E+09
Recovered Weight (Nannochloropsis oculata [8]; [14]): 267.27 mg
effect on growth and lipid levels (Nannochloris sp. [4]; 500 mL batch culture): No significant changes; also recorded: no effect, or a small decrease in growth and lipid production
SFAs (%) (Nannochloropsis oculata [1]; N. oculata, 1%, n=1, Normal 0 ± 1): 7%
MUFAs (%) (Nannochloropsis oculata [1]; N. oculata, 1%, n=1, Normal 4 ± 7): 32%
n3 PUFAs (%) (Nannochloropsis oculata [1]; N. oculata, 1%, n=1, Normal 28 ± 4): 17%
PUFAs (%) (Nannochloropsis oculata [1]; N. oculata, 1%, n=1, Normal 96 ± 7): 61%
effect on growth and cell density (Nannochloropsis salina [7]; >0.8% v/v DMSO, microplates): detrimental effect on growth and cell density
increase in cell density (Nannochloropsis oculata [5]; 0.4% DMSO, microplate screen): 57%
increase in lipid levels (Nannochloropsis oculata [5]; 0.4% DMSO, microplate screen): 75%
effect on growth and cell density (Nannochloropsis oculata [5]; >0.8% v/v DMSO, microplates): detrimental effect on growth and cell density
effect on growth (deviation from control growth) (microalgae; 0.4% v/v DMSO): ≤ 10%
effect on growth (microalgae; less than 0.4% v/v DMSO, microplates, any of the four microalgae strains): did not show a toxic or detrimental effect on the growth
effect on growth (microalgae; ≧1% v/v DMSO): detrimental growth effects
